Laboratory results: US20260209223A1, “FGFR3 INHIBITOR COMPOUNDS” (TYRA BIOSCIENCES, INC., priority 2022, published 2026)

How the values were obtained:
FGFR1 = target: T1, FGFR1 (Homo sapiens, UniProt P11362); assay: Kinase binding assay (Kd), kinase-tagged T7 phage, affinity beads, qPCR; settings: in vitro binding assay, 11-point 3-fold dilution series
T1 construct: made in house; host or cells: E. coli (BL21-derived) infected with T7 phage

FGFR2 = target: T2, FGFR2 (Homo sapiens, UniProt P21802); assay: as above; settings: in vitro binding assay, 11-point 3-fold dilution series
T2 construct: made in house; host or cells: E. coli (BL21-derived) infected with T7 phage

FGFR3 = target: T3, FGFR3 (Homo sapiens, UniProt P22607); assay: as above; settings: in vitro binding assay, 11-point 3-fold dilution series
T3 construct: made in house; host or cells: E. coli (BL21-derived) infected with T7 phage

FGFR3 (V555M) = target: T4, FGFR3 (V555M) (Homo sapiens, UniProt P22607, V555M); assay: as above; settings: in vitro binding assay, 11-point 3-fold dilution series
T4 construct: made in house; host or cells: E. coli (BL21-derived) infected with T7 phage

FGFR4 = target: T5, FGFR4 (Homo sapiens, UniProt P22455); assay: as above; settings: in vitro binding assay, 11-point 3-fold dilution series
T5 construct: made in house; host or cells: E. coli (BL21-derived) infected with T7 phage

Ba/F3 BCR-FGFR1 = target: T6, Ba/F3 BCR-FGFR1 (Homo sapiens, UniProt P11362); assay: Ba/F3 cell viability assay (CellTiter-Glo 2.0); format: cell-based; settings: Ba/F3 cell data, BCR-FGFR1 fusion, 48 hours
T6 construct: BCR (fusion partner); host or cells: Ba/F3; the other entry of the earlier key: BCR (P11274, Breakpoint cluster region protein)

Ba/F3 BCR-FGFR2 = target: T7, Ba/F3 BCR-FGFR2 (Homo sapiens, UniProt P21802); assay: Ba/F3 cell viability assay (CellTiter-Glo 2.0); format: cell-based; settings: Ba/F3 cell data, BCR-FGFR2 fusion, 48 hours
T7 construct: BCR (fusion partner); host or cells: Ba/F3; the other entry of the earlier key: BCR (P11274, Breakpoint cluster region protein)

Ba/F3 FGFR3-BAIAP2L1 = target: T8, Ba/F3 FGFR3-BAIAP2L1 (Homo sapiens, UniProt P22607); assay: Ba/F3 cell viability assay (CellTiter-Glo 2.0); format: cell-based; settings: Ba/F3 cell data, FGFR3-BAIAP2L1 fusion, 48 hours
T8 construct: BAIAP2L1 (fusion partner, Q9UHR4 if human); host or cells: Ba/F3; the other entry of the earlier key: BAIAP2L1 (Q9UHR4, BAR/IMD domain-containing adapter protein 2-like 1)

Ba/F3 ETV5-FGFR4 = target: T9, Ba/F3 ETV5-FGFR4 (Homo sapiens, UniProt P22455); assay: Ba/F3 cell viability assay (CellTiter-Glo 2.0); format: cell-based; settings: Ba/F3 cell data, ETV5-FGFR4 fusion, 48 hours
T9 construct: host or cells: Ba/F3; the other entry of the earlier key: ETV5 (P41161, ETS translocation variant 5)

KG-1 = assay: Cancer cell line cell viability assay (CellTiter-Glo 2.0); format: cell-based; settings: Homo sapiens; KG-1 (FGFR1-fusion) cell viability, 72 hours
Text: (§1) Experimental Purpose: To detect the change of intracellular ATP by Cell Titer-Glo® and to evaluate the inhibitory effect of the compounds on cancer cell lines by determining the in vitro IC50 value of the compounds.
(§2) Cell Titer-Glo® 2.0 Luminescent cell viability assay reagent was purchased from Promega (Madison, WI). RT112/84 and KG-1 cell lines were purchased from American Type Culture Collection (Manassas, VA). UM-UC-14 cell line was purchased from Sigma (St. Louis, MO). RT112/84, UM-UC-14, and KG-1 cells were cultured in RPMI1640 media supplemented with 10% fetal bovine serum. Cultures were maintained at 37° C. in a humidified atmosphere of 5% CO2 and 95% air.
(§3) Cell Viability Assay Procedure: Cells were plated in 96-well clear bottom/white plates (Corning #3903) at 10,000 cells/well in 100 μl of media, incubated overnight. The next day, test compound DMSO stock solutions were made at 10 mM and 2 μM final concentration.
(§4) Compounds were then added to cells in a 9-dose, […] dilution series starting at 30 μM with an HP 300e Digital Dispenser (each dose was applied in triplicate). DMSO was backfilled to each well up to 301 nL total volume of test compound+DMSO, and a total of 301 nL DMSO was added to a control/no test compound well in triplicate. The cells in cell culture plates were incubated with the compounds at 37° C. and 5% CO2 for 72 hours. Then 50 μl of Cell Titer Glo 2.0 reagent was added to each well of the cell culture plates. The contents were covered from light and mixed on an orbital shaker at room temperature for 10 min.
(§5) Luminescence was recorded by a Synergy H1 Microplate Reader (Biotek, Winooski, VT). Cells were assessed as a percentage of DMSO only treated control cells. Curves were plotted and IC50 values were calculated using the GraphPad Prism 8 program based on a sigmoidal dose-response equation (4 parameter).

RT112/84 = assay: as above; format: cell-based; settings: Homo sapiens; RT112/84 (FGFR3-fusion) cell viability, 72 hours
Text: as §1, §2, §3, §4, §5

KatoIIII = assay: as above; format: cell-based; settings: 72 hours

T9 sequence (P22455 467-755 limits assumed): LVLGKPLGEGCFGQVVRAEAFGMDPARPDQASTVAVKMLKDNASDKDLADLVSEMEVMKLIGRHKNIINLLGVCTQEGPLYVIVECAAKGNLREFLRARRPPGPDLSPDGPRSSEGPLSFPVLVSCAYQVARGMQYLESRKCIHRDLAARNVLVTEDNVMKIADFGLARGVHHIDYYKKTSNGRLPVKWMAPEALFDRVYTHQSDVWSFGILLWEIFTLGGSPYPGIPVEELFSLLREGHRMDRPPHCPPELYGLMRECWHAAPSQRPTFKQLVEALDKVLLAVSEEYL
T4 sequence (P22607 23-806 V555M): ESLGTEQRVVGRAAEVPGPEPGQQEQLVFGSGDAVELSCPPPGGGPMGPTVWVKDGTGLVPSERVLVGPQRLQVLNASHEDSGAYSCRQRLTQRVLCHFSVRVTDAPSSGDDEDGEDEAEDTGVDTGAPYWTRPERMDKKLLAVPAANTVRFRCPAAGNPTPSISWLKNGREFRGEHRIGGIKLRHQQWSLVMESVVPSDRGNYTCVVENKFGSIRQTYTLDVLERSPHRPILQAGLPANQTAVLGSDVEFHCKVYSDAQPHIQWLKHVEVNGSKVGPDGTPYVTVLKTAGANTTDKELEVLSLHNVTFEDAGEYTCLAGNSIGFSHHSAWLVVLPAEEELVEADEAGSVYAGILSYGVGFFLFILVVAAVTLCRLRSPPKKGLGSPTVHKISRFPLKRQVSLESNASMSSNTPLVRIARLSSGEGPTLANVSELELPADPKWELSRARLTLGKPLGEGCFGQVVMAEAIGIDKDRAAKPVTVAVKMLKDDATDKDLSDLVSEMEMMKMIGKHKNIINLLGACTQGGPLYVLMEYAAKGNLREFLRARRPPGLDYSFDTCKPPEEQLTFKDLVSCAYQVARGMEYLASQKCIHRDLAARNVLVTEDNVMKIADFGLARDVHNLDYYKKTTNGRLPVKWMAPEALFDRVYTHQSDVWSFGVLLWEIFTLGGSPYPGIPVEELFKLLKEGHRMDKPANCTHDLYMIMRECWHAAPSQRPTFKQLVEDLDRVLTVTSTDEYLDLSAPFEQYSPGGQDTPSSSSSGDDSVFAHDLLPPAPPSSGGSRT
T2 sequence (P21802 22-821): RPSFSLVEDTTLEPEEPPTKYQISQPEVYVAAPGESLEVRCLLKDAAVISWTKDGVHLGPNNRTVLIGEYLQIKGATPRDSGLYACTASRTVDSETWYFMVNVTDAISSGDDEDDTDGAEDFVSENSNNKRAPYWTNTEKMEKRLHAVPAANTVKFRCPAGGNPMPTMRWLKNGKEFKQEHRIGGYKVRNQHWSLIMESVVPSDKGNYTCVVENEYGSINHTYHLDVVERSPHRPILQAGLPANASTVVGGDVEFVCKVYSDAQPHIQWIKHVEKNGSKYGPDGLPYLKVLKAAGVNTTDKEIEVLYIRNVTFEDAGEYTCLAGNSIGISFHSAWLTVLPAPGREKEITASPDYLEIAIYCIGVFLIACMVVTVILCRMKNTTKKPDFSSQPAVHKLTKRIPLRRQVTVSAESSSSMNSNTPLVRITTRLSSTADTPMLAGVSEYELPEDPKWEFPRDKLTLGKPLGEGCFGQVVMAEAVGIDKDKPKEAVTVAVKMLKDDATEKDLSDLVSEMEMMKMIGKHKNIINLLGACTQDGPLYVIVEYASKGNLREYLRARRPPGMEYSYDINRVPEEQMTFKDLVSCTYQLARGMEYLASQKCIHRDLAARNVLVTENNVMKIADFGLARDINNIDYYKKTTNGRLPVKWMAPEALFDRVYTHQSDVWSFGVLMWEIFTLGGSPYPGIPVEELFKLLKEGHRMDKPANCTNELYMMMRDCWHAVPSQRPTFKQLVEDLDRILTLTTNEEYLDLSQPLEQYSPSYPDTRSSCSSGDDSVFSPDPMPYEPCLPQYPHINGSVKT
T1 sequence (P11362 22-822): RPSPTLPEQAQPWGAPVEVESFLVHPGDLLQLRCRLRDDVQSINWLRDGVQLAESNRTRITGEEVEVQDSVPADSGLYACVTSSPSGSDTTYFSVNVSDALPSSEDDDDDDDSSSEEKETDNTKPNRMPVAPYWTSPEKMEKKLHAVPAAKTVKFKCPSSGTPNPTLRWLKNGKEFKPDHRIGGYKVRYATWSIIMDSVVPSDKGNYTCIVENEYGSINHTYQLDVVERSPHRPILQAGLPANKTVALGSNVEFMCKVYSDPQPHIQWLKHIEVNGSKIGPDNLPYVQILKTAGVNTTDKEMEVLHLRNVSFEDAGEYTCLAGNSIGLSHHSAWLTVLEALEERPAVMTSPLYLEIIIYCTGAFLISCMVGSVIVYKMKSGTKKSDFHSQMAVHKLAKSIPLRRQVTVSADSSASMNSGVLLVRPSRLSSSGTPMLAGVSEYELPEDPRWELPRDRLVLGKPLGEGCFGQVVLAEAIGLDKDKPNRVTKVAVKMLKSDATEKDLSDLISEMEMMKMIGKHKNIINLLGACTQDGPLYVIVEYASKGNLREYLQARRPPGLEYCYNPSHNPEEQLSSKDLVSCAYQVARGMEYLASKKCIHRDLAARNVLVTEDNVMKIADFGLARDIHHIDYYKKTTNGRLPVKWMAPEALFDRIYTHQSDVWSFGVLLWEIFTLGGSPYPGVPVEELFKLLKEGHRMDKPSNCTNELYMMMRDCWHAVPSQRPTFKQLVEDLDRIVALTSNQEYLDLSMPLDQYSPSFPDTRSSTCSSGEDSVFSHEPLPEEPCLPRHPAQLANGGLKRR
T5 sequence (P22455 22-802): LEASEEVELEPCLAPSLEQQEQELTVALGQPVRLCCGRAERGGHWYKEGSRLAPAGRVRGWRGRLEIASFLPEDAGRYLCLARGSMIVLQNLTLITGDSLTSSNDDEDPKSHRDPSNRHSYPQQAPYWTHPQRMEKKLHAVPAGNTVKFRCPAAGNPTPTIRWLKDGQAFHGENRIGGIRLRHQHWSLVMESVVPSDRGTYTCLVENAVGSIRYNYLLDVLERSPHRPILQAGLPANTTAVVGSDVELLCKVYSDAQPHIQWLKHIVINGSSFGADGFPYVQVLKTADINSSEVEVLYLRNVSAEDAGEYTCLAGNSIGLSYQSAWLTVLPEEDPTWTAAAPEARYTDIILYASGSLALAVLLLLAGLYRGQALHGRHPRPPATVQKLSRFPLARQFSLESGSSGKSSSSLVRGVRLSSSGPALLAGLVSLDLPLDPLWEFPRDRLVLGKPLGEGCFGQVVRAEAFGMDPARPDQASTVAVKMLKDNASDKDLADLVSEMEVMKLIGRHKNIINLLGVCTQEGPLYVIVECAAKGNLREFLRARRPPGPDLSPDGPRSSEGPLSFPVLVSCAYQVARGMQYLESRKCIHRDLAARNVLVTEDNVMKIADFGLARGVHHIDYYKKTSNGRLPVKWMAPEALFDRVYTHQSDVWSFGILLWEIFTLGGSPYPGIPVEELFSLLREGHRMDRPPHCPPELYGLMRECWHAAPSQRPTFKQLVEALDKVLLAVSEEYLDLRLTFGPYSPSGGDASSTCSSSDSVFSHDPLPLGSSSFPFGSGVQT
T8 sequence (P22607 397-758 limits assumed): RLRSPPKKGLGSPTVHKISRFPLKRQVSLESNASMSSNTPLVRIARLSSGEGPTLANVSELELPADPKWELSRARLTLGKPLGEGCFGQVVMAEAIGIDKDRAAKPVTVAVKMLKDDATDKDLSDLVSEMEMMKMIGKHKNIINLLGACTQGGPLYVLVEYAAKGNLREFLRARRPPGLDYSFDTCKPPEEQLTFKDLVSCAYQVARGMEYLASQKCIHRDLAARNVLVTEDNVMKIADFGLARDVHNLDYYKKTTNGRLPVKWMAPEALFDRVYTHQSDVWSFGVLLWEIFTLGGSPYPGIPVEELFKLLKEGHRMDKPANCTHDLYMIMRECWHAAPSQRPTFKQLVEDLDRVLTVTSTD
T7 sequence (P21802 481-770 limits assumed): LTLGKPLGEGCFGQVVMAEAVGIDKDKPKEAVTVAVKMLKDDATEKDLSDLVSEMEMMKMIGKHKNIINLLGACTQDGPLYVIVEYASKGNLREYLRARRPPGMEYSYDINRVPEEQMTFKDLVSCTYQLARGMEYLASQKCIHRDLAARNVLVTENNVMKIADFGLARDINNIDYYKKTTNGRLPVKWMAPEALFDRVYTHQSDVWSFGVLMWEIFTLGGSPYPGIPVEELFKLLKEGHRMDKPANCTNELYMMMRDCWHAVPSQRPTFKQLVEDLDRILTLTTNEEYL
T3 sequence (P22607 23-806): as the sequence (P22607 23-806 V555M) above, with M533V counted along it
T6 sequence (P11362 478-767 limits assumed): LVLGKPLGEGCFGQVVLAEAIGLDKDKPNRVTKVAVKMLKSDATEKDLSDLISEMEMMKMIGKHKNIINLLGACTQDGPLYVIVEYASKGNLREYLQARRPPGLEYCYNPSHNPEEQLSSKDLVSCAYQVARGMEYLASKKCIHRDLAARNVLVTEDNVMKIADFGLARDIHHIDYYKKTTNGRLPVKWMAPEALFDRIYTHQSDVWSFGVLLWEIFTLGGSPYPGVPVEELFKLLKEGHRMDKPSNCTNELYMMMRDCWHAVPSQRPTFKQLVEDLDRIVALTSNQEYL

Row | Structure (SMILES) | Kd (FGFR1) [nM] | Kd (FGFR2) [nM] | Kd (FGFR3) [nM] | Kd (FGFR3 (V555M)) [nM] | Kd (FGFR4) [nM] | Kd (Ba/F3 BCR-FGFR1) [nM] | Kd (Ba/F3 BCR-FGFR2) [nM] | Kd (Ba/F3 FGFR3-BAIAP2L1) [nM] | Kd (Ba/F3 ETV5-FGFR4) [nM] | IC50 (KG-1) [nM] | IC50 (RT112/84) [nM] | IC50 (KatoIIII) [nM]
1 | C=CC(=O)N1CCC(n2ncc(-c3cc(O[C@@H](CO)c4ccc(F)cn4)c4c(C#N)cnn4c3)c2C)CC1 [Example 2, 4-[(1R)-1-(5-fluoro-2-pyridyl)-2-hydroxy-ethoxy]-6-[5-methyl-1-(1-prop-2-enoyl-4-piperidyl)pyrazol-4-yl]pyrazolo[1,5-a]pyridine-3-carbonitrile] | 250 to 1000 | 250 to 1000 | 250 to 1000 | 250 to 1000 | ≥ 1000 | ≥ 1000 | ≥ 1000 | 250 to 1000 | ≥ 1000 | ≥ 1000 | ≥ 1000 | 250 to 1000
2 | C=CC(=O)N1CCC2(CC1)CC(n1ncc(-c3cc(O[C@H](CO)c4ccccn4)c4c(C#N)cnn4c3)c1C)C2 [Example 8, (S)-6-(1-(7-acryloyl-7-azaspiro[3.5]nonan-2-yl)-5-methyl-1H-pyrazol-4-yl)-4-(2-hydroxy-1-(pyridin-2-yl)ethoxy)pyrazolo[1,5-a]pyridine-3-carbonitrile] | 0.1 to 100 | 0.1 to 100 | 0.1 to 100 | 0.1 to 100 | 0.1 to 100 | 100 to 250 | 100 to 250 | 0.1 to 100 | 250 to 1000 | 100 to 250 | 100 to 250 | 100 to 250
